Consider four molecules from patent US6642274B1, “Methods and compositions for preventing and treating prostate disorders” (priority 1999, dated 2003).

For data set [1] the following is noted: rapid hydrolysis by serum and tissue esterases into alpha-tocopherol; cited from earlier work.
Data set [2] relates to cancer cell cultures. The note with it: cited from earlier work.
For data set [3] the following is noted: in vivo. The source says: (§1) Szarka reviews the strategy of chemoprevention as a possible method of blocking the development of cancers in humans (C F Szarka et al “Chemoprevention of cancer” Curr Probl Cancer 1994 January-February; 18(1):6-79).
Data set [4] relates to cancer cell cultures. The data set is described as follows: Cytostatic or cytotoxic effects on cancer cell cultures. The format is cell-based. The note with it: after hydrolysis of alpha-tocopherol succinate into alpha-tocopherol.
Excerpt: as §1

A further data set relates to BPH. As to conditions: cited from earlier work.
For a further data set, the system named is 5alpha-reductase. The note with it: after daily dosing with 5 milligrams; cited from earlier work.

The structures appear in SMILES notation.

With `Cc1c(C)c2c(c(C)c1OC(=O)CCC(=O)O)CC[C@@](C)(CCC[C@H](C)CCC[C@H](C)CCCC(C)C)O2` [alpha-tocopherol succinate], in data set [1], the “levels available systemically after oral administration” value is “undetectable levels”. The “concentration necessary to demonstrate cytostatic or cytotoxic effects” value (from here on “concentration necessary”) in the data set with cancer cell cultures [2] was 10 µM.

`O=C1O[C@H]([C@@H](O)CO)C(O)=C1O` [ascorbic acid]: the “factor by which minimal target tissue concentration exceeds the maximum levels possible in oral administration” value in data set [3] is 10-20 fold. Further, in the data set on cancer cell cultures [2], the “concentration necessary” value is on record as 1-2 millimolar.

For the molecule `Cc1c(C)c2c(c(C)c1O)CC[C@@](C)(CCC[C@H](C)CCC[C@H](C)CCCC(C)C)O2` [alpha-tocopherol], the “factor by which minimal target tissue concentration exceeds the maximum levels possible in oral administration” value in data set [3] is recorded as 7-10 fold. For the same molecule, the “reduction in potency relative to alpha-tocopherol succinate” value in the data set with cancer cell cultures [4] was determined as 50 fold. Besides, the “concentration necessary” value in the data set with cancer cell cultures [2] is 0.5 millimolar.

As for `CC(C)(C)NC(=O)[C@H]1CC[C@H]2[C@@H]3CC[C@H]4NC(=O)C=C[C@]4(C)[C@H]3CC[C@]12C` [finasteride], in the data set with BPH (oral administration), the “side effects in men” value is “erectile dysfunction, decreased volume of ejaculate and loss of libido”. Also, in the data set with BPH (two large clinical studies, finasteride treatment), the “increase in peak urinary flow rates” value was about 1.6 mls/second. For the same molecule, the “reduction in serum dihydrotestosterone levels” value with 5alpha-reductase is given as 70%.
